Molecular target: T1, H3R membranes (human histamine 3 receptor) (Homo sapiens, UniProt Q9Y5N1)
T1 construct: expressed in transfected cells; pcDNA3.1(+) vector, G418 selection)
Assay: [35S] GTP γ [S] Binding Assay
Type: biochemical
Conditions: inhibition of [35S]GTPγS binding to membranes from H3R8-expressing HEK293 cells in the presence of agonist R(−)alpha methylhistamine
Method: Membranes isolated as described in (Preparation of Histamine Receptor Subtype Membranes) were used in a [35S]GTPχS functional assay. Binding of [35S]GTPχS to membranes indicates agonist activity. Compounds of the invention of Formula I were tested for their ability to inhibit binding in the presence of agonists. Alternately, the same transfected cell lines were used for a cAMP assay wherein H3R agonists inhibited forskolin-activated synthesis of cAMP. Compounds of Formula I were tested for their ability to permit forskolin-stimulated cAMP synthesis in the presence of agonist. cDNA for the human histamine 3 receptor was cloned and expressed as described in (A. Preparation H1R membranes), above. Transfected cells were selected using G418 ([…]), grown, and tested for histamine binding by the SPA described above. For total binding, cells were assayed in a SPA reaction described above containing 50 mM Tris-HCL (assay buffer), pH 7.6, 1 mg wheat germ agglutinin SPA beads (Amersham Pharmacia Biotech, #RPNQ0001), and 1 nM (^3H)-n-alpha-methylhistamine (NEN, NET1027) (total volume per well=200 μl). Thioperimide was added to determine non-specific binding. Several clones were selected as positive for binding, and a single clone (H3R8) was used to prepare membranes for binding studies described above. […] Plates were counted in Wallac Trilux 1450 Microbeta scintillation counter for 1 minute. […]

T1 sequence (Q9Y5N1 whole entry): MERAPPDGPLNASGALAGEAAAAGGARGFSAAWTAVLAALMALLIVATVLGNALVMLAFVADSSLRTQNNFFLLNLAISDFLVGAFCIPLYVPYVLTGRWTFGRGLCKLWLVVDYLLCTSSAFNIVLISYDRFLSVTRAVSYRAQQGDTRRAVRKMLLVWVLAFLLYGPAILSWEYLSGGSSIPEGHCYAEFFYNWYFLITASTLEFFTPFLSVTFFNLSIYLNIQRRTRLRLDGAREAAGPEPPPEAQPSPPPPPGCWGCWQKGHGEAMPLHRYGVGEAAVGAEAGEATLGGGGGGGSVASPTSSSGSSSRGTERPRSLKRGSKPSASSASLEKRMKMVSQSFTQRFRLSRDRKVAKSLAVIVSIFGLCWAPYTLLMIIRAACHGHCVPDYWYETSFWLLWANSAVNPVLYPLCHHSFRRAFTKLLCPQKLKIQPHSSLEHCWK

Row | Ki [nM] | SMILES
1 | 19 | COc1ccc(COc2ccc(C(=O)N3CCC[C@H]3CN3CCCC3)cc2)cc1
2 | 4.1 | O=C(c1ccc(OCc2cnccn2)cc1)N1CCC[C@H]1CN1CCCC1

Source: patent US7696234B2, “Histamine H3 receptor agents, preparation and therapeutic uses” (Eli Lilly and Company, priority 2004, dated 2010)
